Consider 2 compounds from patent publication US20100179103A1 (priority 2008, published 2010).

Series [1] concerns carrageenan paw inflammation. Kind of series: mouse carrageenan paw inflammation (paw edema) model. The format is in vivo. The following applies: 3 hours; p.o. gavage; curcumin 30 mg/kg, CDC 30 mg/kg, indomethacin 5 mg/kg; male CD-1 mice. For orientation: The carrageenan paw model is a standard test of acute inflammation.
The conditions of series [2]: in vivo; cited from earlier work.

For the compound `COc1ccc2c(c1)c(CC(=O)O)c(C)n2C(=O)c1ccc(Cl)cc1` [indomethacin, Indomethacin], the “swelling (edema: left paw thickness minus right paw thickness)” value in series [1] came out at 0.73 mm. Take `COc1cc(/C=C/C(=O)CC(=O)/C=C/c2ccc(O)c(OC)c2)ccc1O` [curcumin, Curcumin]: the “swelling (edema: left paw thickness minus right paw thickness)” value in series [1] is 0.66 mm. The Tmax (commonly the time at which the peak concentration occurs) in series [2] was 3 to 5 min.
